The source of these data is PubChem BioAssay AID328 (DTP/NCI, 2004).

The assay concerns BDF1 mice, P388 leukemia ip, median survival T/C. Kind of assay: NCI In Vivo Anticancer Drug Screen. Data for tumor model P388 Leukemia (intraperitoneal) in B6D2F1 (BDF1) mice. As to conditions: endpoint: median survival time, higher = longer survival. The gist of the method:
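Survival ratio, drug arm over vehicle arm, in mice with a transplanted tumour.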

Setting [1] is: dose: 50.0 mg/kg/injection, schedule: Q01DX009 (ip), vehicle: saline with Tween-80.
Where [2] appears, read: dose: 200.0 mg/kg/injection, schedule: Q01DX009 (ip), vehicle: saline with Tween-80.
[3] abbreviates: dose: 25.0 mg/kg/injection, schedule: Q01DX009 (ip), vehicle: Klucel (hydroxypropylcellulose) (HPC).
Setting [4] is: dose: 100.0 mg/kg/injection, schedule: Q04DX003 (ip), vehicle: saline with Tween-80.
Where [5] appears, read: dose: 200.0 mg/kg/injection, schedule: Q04DX003 (ip), vehicle: saline with Tween-80.
Where [6] appears, read: dose: 400.0 mg/kg/injection, schedule: Q04DX003 (ip), vehicle: saline with Tween-80.
[7] abbreviates: dose: 50.0 mg/kg/injection, schedule: Q01DX009 (ip), vehicle: Klucel (hydroxypropylcellulose) (HPC).
The mark [8] stands for this setting: dose: 100.0 mg/kg/injection, schedule: Q04DX003 (ip), vehicle: Klucel (hydroxypropylcellulose) (HPC).
Setting [9] is: dose: 200.0 mg/kg/injection, schedule: Q04DX003 (ip), vehicle: Klucel (hydroxypropylcellulose) (HPC).
Setting [10] is: dose: 400.0 mg/kg/injection, schedule: Q04DX003 (ip), vehicle: Klucel (hydroxypropylcellulose) (HPC).

Where “and” joins values, the source holds several entries; their conditions need not be identical. Equal values may be shown once. Inconclusive results and toxic doses are left out.

Regarding `COc1cc2cc3c4cc(OC)c(OC)cc4cc[n+]3cc2cc1OC`, the T/C by setting is: (dose: 5.0 mg/kg/injection, schedule: Q01DX009 (ip), vehicle: saline with Tween-80) 109 % of control; (dose: 10.0 mg/kg/injection, schedule: Q01DX009 (ip), vehicle: saline with Tween-80) 118 % of control; (dose: 40.0 mg/kg/injection, schedule: Q01DX009 (ip), vehicle: saline with Tween-80) 159 % of control; (dose: 40.0 mg/kg/injection, schedule: Q04DX003 (ip), vehicle: saline) 163 % of control; (dose: 80.0 mg/kg/injection, schedule: Q04DX003 (ip), vehicle: saline) 174 % of control; (dose: 160.0 mg/kg/injection, schedule: Q01DX009 (ip), vehicle: saline with Tween-80) 154 % of control. Moreover, the T/C was 154 % of control (dose: 160.0 mg/kg/injection, schedule: Q04DX003 (ip), vehicle: saline with Tween-80); 166 % of control (dose: 160.0 mg/kg/injection, schedule: Q04DX003 (ip), vehicle: saline); 122 % of control (dose: 320.0 mg/kg/injection, schedule: Q04DX003 (ip), vehicle: saline with Tween-80); 120 % of control (dose: 320.0 mg/kg/injection, schedule: Q04DX003 (ip), vehicle: saline).
`C1=C(c2ccccc2)C(c2ccccc2)=C(c2ccccc2)C(c2ccccc2)C(c2ccccc2)=N1` (configuration not stated): the T/C runs as follows: under setting [1], 100 % of control; (dose: 100.0 mg/kg/injection, schedule: Q01DX009 (ip), vehicle: saline with Tween-80) 92 % of control; under setting [2], 106 % of control.
Turning to `CCC[As](CCC)SC1OC(COC(C)=O)C(OC(C)=O)C(OC(C)=O)C1OC(C)=O` (configuration not stated), where the note is “dose: 50.0 mg/kg/injection, schedule: Q01DX009 (ip), vehicle: saline + alcohol”, the T/C was 109 % of control.
Consider `C[n+]1ccccc1/C=C/c1cccc(O)c1`, for which the T/C reads like this: (dose: 3.12 mg/kg/injection, schedule: Q01DX009 (ip), vehicle: Klucel (hydroxypropylcellulose) (HPC)) 96 % of control; (dose: 6.25 mg/kg/injection, schedule: Q01DX009 (ip), vehicle: Klucel (hydroxypropylcellulose) (HPC)) 96 % of control; (dose: 12.5 mg/kg/injection, schedule: Q01DX009 (ip), vehicle: Klucel (hydroxypropylcellulose) (HPC)) 102 % of control; under setting [3], 102 % of control.
`COC1CC(N=[N+]=[N-])C(O)C(C)O1` (configuration not stated): the T/C was 118 % of control and 101 % of control under setting [4]; 110 % of control and 101 % of control under setting [5]; 118 % of control and 93 % of control under setting [6]; 109 % of control (dose: 500.0 mg/kg/injection, schedule: Q04DX003 (ip), vehicle: saline with Tween-80).
As for `CCOC(=O)Nc1cc(NCC(=O)c2ccc(C(F)(F)F)cc2)c([N+](=O)[O-])c(N)n1`, the T/C reads like this: (dose: 50.0 mg/kg/injection, schedule: Q01DX001 (ip), vehicle: saline with Tween-80) 94 % of control; (dose: 100.0 mg/kg/injection, schedule: Q01DX001 (ip), vehicle: saline with Tween-80) 105 % of control; (dose: 200.0 mg/kg/injection, schedule: Q01DX001 (ip), vehicle: saline with Tween-80) 105 % of control.
Take `CCc1nc2ccccc2c(=O)n1C`: the T/C runs as follows: under setting [1], 101 % of control; under setting [2], 101 % of control.
Take `C[n+]1c(/C=C/c2ccc(O)c3ncccc23)[se]c2ccccc21`: the T/C reads like this: (dose: 0.25 mg/kg/injection, schedule: Q01DX010 (ip), vehicle: saline) 104 % of control; (dose: 0.5 mg/kg/injection, schedule: Q01DX010 (ip), vehicle: saline) 118 % of control; (dose: 1.0 mg/kg/injection, schedule: Q01DX010 (ip), vehicle: saline) 104 % of control; (dose: 1.5 mg/kg/injection, schedule: Q01DX010 (ip), vehicle: acetone) 165 % of control; (dose: 3.0 mg/kg/injection, schedule: Q01DX010 (ip), vehicle: acetone) 165 % of control; (dose: 3.0 mg/kg/injection, schedule: Q01DX010 (ip), vehicle: saline) 122 % of control. The T/C by setting is: (dose: 6.0 mg/kg/injection, schedule: Q01DX010 (ip), vehicle: acetone) 185 % of control; (dose: 25.0 mg/kg/injection, schedule: Q01DX010 (ip), vehicle: saline) 118 % of control.
As for `CCN(CC)CCOCCO`, the T/C was 110 % of control (dose: 100.0 mg/kg/injection, schedule: Q04DX003 (ip), vehicle: saline) and 100 % of control (dose: 400.0 mg/kg/injection, schedule: Q04DX003 (ip), vehicle: saline).
On to `Cn1nnnc1N/N=C/c1ccccc1`, for which the T/C runs as follows: under setting [4], 110 % of control; under setting [5], 115 % of control; under setting [6], 100 % of control.
On to `Cc1cc(C)n(CO)n1`, for which the T/C was 96 % of control under setting [3], 107 % of control under setting [7], 108 % of control under setting [8] and 100 % of control under setting [9].
Turning to `CCOC(=O)CNCc1cccc(Br)c1`, the T/C is, setting by setting: (dose: 50.0 mg/kg/injection, schedule: Q01DX005 (ip), vehicle: saline) 104 % of control; (dose: 100.0 mg/kg/injection, schedule: Q01DX005 (ip), vehicle: saline) 106 % of control; (dose: 200.0 mg/kg/injection, schedule: Q01DX005 (ip), vehicle: saline) 98 % of control; (dose: 400.0 mg/kg/injection, schedule: Q01DX005 (ip), vehicle: saline) 104 % of control.
Regarding `CCN(CC)CCC(=O)c1ccccc1`, the T/C under setting [1] is 95 % of control.
For the molecule `CN(C)c1ccc(-c2cc[n+](C)cc2)cc1`, the T/C (dose: 0.5 mg/kg/injection, schedule: Q01DX009 (ip), vehicle: saline) was 119 % of control; the T/C (dose: 1.0 mg/kg/injection, schedule: Q01DX009 (ip), vehicle: saline) is 111 % of control; the T/C (dose: 2.0 mg/kg/injection, schedule: Q01DX009 (ip), vehicle: saline) was 91 % of control; the T/C (dose: 3.0 mg/kg/injection, schedule: Q01DX009 (ip), vehicle: saline) is 106 % of control; the T/C (dose: 6.0 mg/kg/injection, schedule: Q01DX009 (ip), vehicle: saline) is 114 % of control.
For the molecule `CC(=O)N1CCn2nccc21`, the T/C reads like this: (dose: 100.0 mg/kg/injection, schedule: Q04DX003 (ip), vehicle: water) 104 % of control; (dose: 200.0 mg/kg/injection, schedule: Q04DX003 (ip), vehicle: water) 90 % of control; (dose: 400.0 mg/kg/injection, schedule: Q04DX003 (ip), vehicle: water) 112 % of control.
In the case of `CN(C)C(=O)CCCCC(=O)N(C)C`, the T/C reads like this: (dose: 1.0 mg/kg/injection, schedule: Q01DX001 (ip), vehicle: saline) 96 % of control; (dose: 2.0 mg/kg/injection, schedule: Q01DX001 (ip), vehicle: saline) 110 % of control; (dose: 4.0 mg/kg/injection, schedule: Q01DX001 (ip), vehicle: saline) 106 % of control; (dose: 8.0 mg/kg/injection, schedule: Q01DX001 (ip), vehicle: saline) 102 % of control; (dose: 16.0 mg/kg/injection, schedule: Q01DX001 (ip), vehicle: saline) 96 % of control; (dose: 32.0 mg/kg/injection, schedule: Q01DX001 (ip), vehicle: saline) 100 % of control. The T/C reads like this: (dose: 64.0 mg/kg/injection, schedule: Q01DX001 (ip), vehicle: saline) 95 % of control; (dose: 128.0 mg/kg/injection, schedule: Q01DX001 (ip), vehicle: saline) 102 % of control.
Turning to `O=[N+]([O-])c1ccc(S/N=C\c2ccccc2)c([N+](=O)[O-])c1`, the T/C is, setting by setting: (dose: 12.5 mg/kg/injection, schedule: Q01DX009 (ip), vehicle: saline with Tween-80) 107 % of control; (dose: 25.0 mg/kg/injection, schedule: Q01DX009 (ip), vehicle: saline with Tween-80) 105 % of control; under setting [1], 105 % of control.
As for `C/C=C(/Cl)c1c(C)cc(C)c(CC(=O)O)c1C`, the T/C runs as follows: under setting [8], 87 % of control; under setting [9], 95 % of control; under setting [10], 95 % of control.
As for `C=C1C(=O)OC2CC(C)C3(O)CCC(C)(CC(OC(=O)C(C)C)C12)O3` (configuration not stated), the T/C runs as follows: (dose: 40.0 mg/kg/injection, schedule: Q01DX009 (ip), vehicle: saline) 100 % of control; under setting [7], 117 % of control; (dose: 100.0 mg/kg/injection, schedule: Q01DX009 (ip), vehicle: Klucel (hydroxypropylcellulose) (HPC)) 117 % of control and 118 % of control.
Turning to `Nc1ccc2c(c1)Cc1cc(Br)ccc1-2`, the T/C by setting is: under setting [8], 104 % of control; under setting [9], 100 % of control; under setting [10], 100 % of control.
